In patent US20110071148A1, “COMPOUNDS AS THE ESTROGEN RELATED RECEPTORS MODULATORS AND THE USES THEREOF” (Guangzhou Institute of Biomedicine and Health, Chinese …, priority 2008, published 2011):

Key:
[1] = Liver weight and fatty liver in high-fat-diet mice; type: in vivo, C57BL/J6 mice; conditions: for liver weight: compared to rosiglitazone 10 mg/kg/d
Method: Seven weeks old male C57BL/J6 mice were either fed chow diet or a high-fat-diet with 60% calories from lard for 10 weeks. Compounds were administered to animals by gavage for two weeks at different doses. Six groups of animals (n=5) were administered with either vehicle, 10 mg/kg/day rosiglitazone, 0.5 mg/kg/day DK1, 5 mg/kg/day DK1, 0.5 mg/kg/day DK3, or 5 mg/kg/day DK3. Total body weight and livers wet weight from animals were measured. Liver samples to from animals were prepared by histological methods.

[2] = Oral glucose tolerance test in high-fat-diet mice; type: in vivo, C57BL/J6 mice; conditions: compared to rosiglitazone 10 mg/kg/day
Method: Seven weeks old male C57BL/J6 mice were either fed chow diet or a high-fat-diet with 60% calories from lard for 10 weeks. Compounds were administered to animals by gavage for two weeks at different doses. Six groups of animals (n=5) were administered with either vehicle, 10 mg/kg/day rosiglitazone, 0.5 mg/kg/day DK1, 5 mg/kg/day DK1, 0.5 mg/kg/day DK3, or 5 mg/kg/day DK3. Animals were then orally fed glucose. Blood samples were withdrawn at time 0, 15, 30, 60 and 120 min. Blood glucose level was measured by monitor (Accu-chek Advantage, Roche). The changes in blood glucose level were plotted against time and the areas under the curve were calculated for the different groups.

[3] = test system: PGC1α-promoter reporter gene driven by ERRα; experiment: PGC1α-promoter luciferase reporter assay driven by ERRα in HeLa cells; type: cell-based, human; conditions: about 24 hours, increasing concentrations, FIG. 4
Text: HeLa were transiently transfected with the pGL3-promoter (Promega) derivative pGL3-PGC1α-promoter and expression vector for ERRα. The Renilla-Luciferase pRL-CMV Vector (Promega) was included as a control for transfection efficiency. The full length human ERRα was cloned into the expression vector pCMV. The pGL3-PGC1α-promoter was generated by cloning an insert derived from a PCR reaction using human genomic DNA as template and primers based on the 2.6 kbp upstream sequence of the PGC1α transcriptional start site.
HeLa cells for the activation assays were grown in Dulbecco's modified Eagle's medium supplemented with 10% fetal bovine serum at 37° C. in 5% CO2. One day prior to transfection, cells were plated to 50-80% confluence using DMEM-FBS. The cells were transiently transfected by lipofection but other methods of transfection of DNA into cells can be utilized without deviating from the spirit of the invention. Luciferase reporter construct pGL3-PGC1α-promoter and cytomegalovirus-driven expression vector pCMV or pCMV -hERRα were added. The cells were treated for approximately 24 hours with DMEM-FBS containing 0.01% DMSO (control) or 0.01% DMSO with increasing concentrations of DK compounds.

[4] = biological target: T1, GAL-hERRα (human ERRalpha ligand binding domain) (Homo sapiens, UniProt P11474); experiment: GAL4-hERRα ligand binding domain luciferase reporter assay (UASgx4-TK-Luc with CMV-PGC-1α) in HeLa cells; type: cell-based; conditions: for expression of reporter genes modulated by ERRα: HeLa cell
T1 construct: expressed in transfected cells; host or cells: HeLa cells, transient lipofection
Method: To test the effect of the compounds on ERRα and other nuclear hormone receptors, HeLa cells were transiently transfected with expression vectors for the receptors along with appropriate reporter constructs according to methods known in the art. Suitable reporter gene constructs are well known to skilled workers in the fields of biochemistry and molecular biology. Other vectors known in the art can be used in the methods of the present invention.
HeLa cells for the activation assays were grown in Dulbecco's modified Eagle's medium supplemented with 10% resin charcoal-stripped fetal bovine serum at 37° C. in 5% CO2. One day prior to transfection, cells were plated to 50-80% confluence to using phenol red free DMEM-FBS. The cells were transiently transfected by lipofection but other methods of transfection of DNA into cells can be utilized without deviating from the spirit of the invention. Luciferase reporter construct UASgx4-TK-Luc and cytomegalovirus-driven expression vector p-GAL, GAL-hERRα, GAL-L-hERRβ or Gal-mERRγ were added with CMV-PGC-1α. The cells were treated for approximately 24 hours with phenol red free DMEM-FBS containing 0.01% DMSO (control) or 0.01% DMSO with increasing concentrations of DK compounds.

[5] = 0.5 mg/kg/day by gavage for two weeks
[6] = 5 mg/kg/day by gavage for two weeks

T1 sequence (P11474 193-421 limits assumed): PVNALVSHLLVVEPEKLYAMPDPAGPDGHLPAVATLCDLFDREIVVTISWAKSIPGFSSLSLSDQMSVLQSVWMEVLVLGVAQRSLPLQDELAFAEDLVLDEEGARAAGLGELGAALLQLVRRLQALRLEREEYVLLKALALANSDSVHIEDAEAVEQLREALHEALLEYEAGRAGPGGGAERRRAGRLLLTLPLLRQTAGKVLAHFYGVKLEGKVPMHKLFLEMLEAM
T1 sequence (P04386 1-147 partner limits assumed): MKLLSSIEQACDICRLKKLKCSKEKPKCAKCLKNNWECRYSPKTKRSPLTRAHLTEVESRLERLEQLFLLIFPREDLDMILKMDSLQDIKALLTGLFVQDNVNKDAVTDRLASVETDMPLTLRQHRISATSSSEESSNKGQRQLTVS
T1 sequence (O70343 whole entry partner, the tested form may be a part): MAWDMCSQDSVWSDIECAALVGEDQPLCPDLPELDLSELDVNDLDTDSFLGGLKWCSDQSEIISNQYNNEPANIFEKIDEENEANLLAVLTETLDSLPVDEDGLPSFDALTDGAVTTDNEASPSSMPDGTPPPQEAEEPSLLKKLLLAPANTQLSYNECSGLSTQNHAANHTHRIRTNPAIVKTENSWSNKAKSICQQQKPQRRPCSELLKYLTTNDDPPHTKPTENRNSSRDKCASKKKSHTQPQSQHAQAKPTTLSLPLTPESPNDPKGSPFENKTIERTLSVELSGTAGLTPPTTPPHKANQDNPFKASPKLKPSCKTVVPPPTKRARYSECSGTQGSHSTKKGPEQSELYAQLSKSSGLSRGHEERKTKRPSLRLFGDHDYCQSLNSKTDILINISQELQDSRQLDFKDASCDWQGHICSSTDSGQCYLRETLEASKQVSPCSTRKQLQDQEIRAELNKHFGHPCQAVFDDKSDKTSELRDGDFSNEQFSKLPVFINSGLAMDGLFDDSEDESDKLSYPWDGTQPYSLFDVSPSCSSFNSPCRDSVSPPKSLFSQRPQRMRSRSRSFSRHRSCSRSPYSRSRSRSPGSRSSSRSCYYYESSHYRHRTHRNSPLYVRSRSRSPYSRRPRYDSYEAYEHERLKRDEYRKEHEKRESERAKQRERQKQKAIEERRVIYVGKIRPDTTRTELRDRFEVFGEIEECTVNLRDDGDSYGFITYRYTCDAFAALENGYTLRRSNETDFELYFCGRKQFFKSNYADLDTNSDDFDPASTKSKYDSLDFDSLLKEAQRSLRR

SMILES	liver weight [1, 5]	liver weight [1, 6]	extent of fatty liver induced by high-fat-diet ([1]; gavage for two weeks, histology, FIGS. 7 and 8)	area under the curve of the oral glucose tolerance test [2, 5]	area under the curve of the oral glucose tolerance test [2, 6]	PGC1α-promoter reporter gene driven by ERRα [3]	expression of reporter genes modulated by ERRα [4]	reversal of the suppressive effect of ERRα specific inverse agonist XCT-790 ([4]; HeLa cells, FIG. 2)	activity of GAL-hERRα on reporter construct UASgx4-TK-Luc ([4]; HeLa cells, in the presence of CMV-PGC-1α, increasing concentrations)
COc1ccc2c(=O)n(C)c(-c3ccccc3)nc2c1 [Compound 1, 7-methoxy-3-methyl-2-phenylquinazolin-4(3H)-one]	did not increase	did not increase	reduce the extent of fatty liver	reduced	reduced	dose-dependent enhancement	effectively enhance	dose-dependently reverses	dose-dependently enhances
COc1ccc2c(=O)n(C)c(-c3ccc(F)cc3)nc2c1 [Compound 3, 2-(4-fluorophenyl)-7-methoxy-3-methylquinazolin-4(3H)-one]							effectively enhance		
COc1ccc2c(=O)n(C)c(-c3ccc(Br)cc3)nc2c1 [Compound 4, 2-(4-bromophenyl)-7-methoxy-3-methylquinazolin-4(3H)-one]							effectively enhance		
